According to patent publication US10960084B2, “Modulation of fluid intake” (California Institute of Technology, priority 2018, dated 2021):

Columns and labels:
MnPO^GLP1r neurons = test: Whole-cell recording from MnPO^GLP1r neurons with Exendin-4; type: cell-based, mice; settings: brain slice preparation
Excerpt: Procedures for preparation of acute brain slices and recordings with optogenetic stimulations were similar to those described previously^[10],[36]. After decapitation, the brain was removed and immersed in ice-cold solution. Coronal slices ([…]) were cut using a vibratome (VT-1200s, Leica) and moved into HEPES-holding solution (NaCl 92, KCl 2.5, NaH2PO4 1.2, NaHCO3 30, HEPES 20, glucose 25, Na-ascorbate 5, Thiourea 2, Na14 pyruvate 3, MgSO4 2, CaCl2 2, pH 7.35). The slices were allowed to recover at 33° C. for 30 min and then held at room temperature ([…]) until use.
While recording, slices were perfused continuously (˜2 mL/min) with artificial cerebrospinal fluid (ACSF-NaCl 124, KCl2.5, NaH2PO4 1.2, NaHCO3 24, glucose 25, MgSO4 1, CaCl2 2) at 25° C. Neurons were visualized and targeted using an upright IR19 DIC microscope (BX51WI, Olympus). […] In order to confirm the PSCs recorded were GABAergic, picrotoxin (150 μM) was applied through the bath in part of the experiments. […] CNO (˜6 μM) was applied by a puff (30 s) from another glass pipette placed ˜50 μm from the recorded cell.

MnPO = test: Intra-cranial injection of Exendin-4 into the MnPO, water intake; type: in vivo, mice; settings: 100 ng into the MnPO vs vehicle (ACSF)
Method: 100 ng of Exendin-4 (Sigma Aldrich) dissolved in 1 μL of ACSF was delivered by a custom-made cannula and tubing (PlasticsOne) connected to a Hamilton syringe driven by a pump (NewEra PumpSystems) at 100 nL/min into the MnPO of water deprived animals under head-fixed conditions. Two minutes after infusion, freely-moving animals were given access to water for the next 45 minutes. The cannula position was verified by infusing Exendin-4-FAM (Anaspec) conjugate before euthanasia. ELISA

SFO^nNOS neurons = test: Salt/Mannitol loading with fiber photometry of SFO^nNOS/MnPO^nNOS neurons and drinking; type: in vivo, mice; settings: fiber photometry; for activity of SFO^nNOS neurons after intraperitoneal injection: 2 M solution i.p.
Method: Salt/Mannitol Loading Experiments: 150 μL/300 μL of 2 M NaCl or 300 μL of 2 M Mannitol was injected intraperitoneally at the end of the acclimatization period. For FIGS. 1P-T and FIGS. 7P-S, CNO or vehicle (water) was injected 10 min prior to NaCl/Mannitol injection. We measured bulk fluorescence signals using fiber photometry as previously described^[26]. Briefly, 490 nm and 405 nm LEDs ([…] and […]) were collimated and delivered to the brain. The light intensity was kept less than 100 μW during all recordings. The fluorescence signal was then focused onto a femtowatt photoreceiver (Newport, Model 2151). The modulation and demodulation were done with an RP2.1 real time processor (Tucker-Davis Technologies) running custom software. The licks from the lickometer were simultaneously recorded as real-time TTL signals to the RP2.1. Fluorescence changes were analyzed using custom MATLAB (MathWorks) code as described previously^[26]. Data were extracted and subjected to a low pass filter at 1.8 Hz. A linear function was used to scale up the 405 nm channel signal to the 490 nm channel signal to get the fitted 405 nm signal. The resultant ΔF/F was calculated as (raw 490 nm signal-fitted 405 nm signal)/(fitted 405 nm signal). For brief access tests, the Area Under Curve (ΣΔFduring) was quantified by integrating the fluorescence signals during the bout. For all bouts, the mean fluorescence for 30 s prior to the first lick was calculated and subtracted from the entire session. ΔF changes (ΔFpost-ΔFpre) were calculated by subtracting the mean fluorescence signal during the 2-s period before the first lick from the mean signal during the 2-s at 1 min after the bout. For displaying traces, the fluorescence data was time-binned by a factor of 2.5 times the sampling frequency and down-sampled to 1 Hz. For long-term tests, the Area Under Curve was calculated for 2.5 min after the start of the bout. […] For […]), the first bout at the start of the session and the last bout within 10 min of access were used. The AUC for the PSTHs were calculated during the first or the last 15 seconds.

Row | Compound | firing frequency of MnPO^GLP1r neurons (MnPO^GLP1r neurons) | resting membrane potential of MnPO^GLP1r neurons (MnPO^GLP1r neurons) | water intake after water deprivation (MnPO) | activity of SFO^nNOS neurons after intraperitoneal injection (SFO^nNOS neurons) | activity of MnPO^nNOS neurons after intraperitoneal injection (SFO^nNOS neurons; 2 M, 300 μl i.p., water-satiated animal)
1 | Exendin-4 | no effect on the firing frequency | small decrease | no effect on water intake |  | 
2 | [Cl-].[Na+] [NaCl] |  |  |  | robustly activated | robustly activated
3 | OC[C@@H](O)[C@@H](O)[C@H](O)[C@H](O)CO [Mannitol] |  |  |  | robustly activated | 
